Results from paper PMC9851200, “Multiparameter phenotypic screening for endogenous TFEB and TFE3 translocation identifies novel chemical series modulating lysosome function” (Autophagy, 2022).

Legend:
Type in all cases: binding
[1] = biological target: kinases (KINOMEscan panel) (Homo sapiens, UniProt P07333); conditions: NEW KINOMEscan
[2] = biological target: T1, kinases (KINOMEscan panel) (Homo sapiens, UniProt Q8NE63); conditions: kinase HIPK4; NEW KINOMEscan
T1 sequence (Q8NE63 1-616): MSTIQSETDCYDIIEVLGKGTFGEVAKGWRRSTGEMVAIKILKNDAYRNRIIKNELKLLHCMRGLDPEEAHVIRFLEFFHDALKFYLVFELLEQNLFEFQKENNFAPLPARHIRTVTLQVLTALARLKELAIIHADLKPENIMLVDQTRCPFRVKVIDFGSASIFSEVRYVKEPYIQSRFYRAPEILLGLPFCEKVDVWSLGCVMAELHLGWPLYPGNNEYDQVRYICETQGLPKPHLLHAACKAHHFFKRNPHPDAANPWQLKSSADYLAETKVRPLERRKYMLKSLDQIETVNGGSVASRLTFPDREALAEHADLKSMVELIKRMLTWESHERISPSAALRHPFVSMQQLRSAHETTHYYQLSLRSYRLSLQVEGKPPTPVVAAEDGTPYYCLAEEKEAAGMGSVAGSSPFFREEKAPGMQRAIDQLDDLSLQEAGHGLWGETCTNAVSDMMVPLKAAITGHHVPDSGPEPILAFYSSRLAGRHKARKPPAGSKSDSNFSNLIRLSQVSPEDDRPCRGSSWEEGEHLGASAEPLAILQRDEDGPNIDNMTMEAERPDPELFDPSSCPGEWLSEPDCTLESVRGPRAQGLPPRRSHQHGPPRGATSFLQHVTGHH

[3] = biological target: T2, kinases (KINOMEscan panel) (Homo sapiens, UniProt Q59H18); conditions: kinase TNNI3K; NEW KINOMEscan
T2 sequence (Q59H18 1-835): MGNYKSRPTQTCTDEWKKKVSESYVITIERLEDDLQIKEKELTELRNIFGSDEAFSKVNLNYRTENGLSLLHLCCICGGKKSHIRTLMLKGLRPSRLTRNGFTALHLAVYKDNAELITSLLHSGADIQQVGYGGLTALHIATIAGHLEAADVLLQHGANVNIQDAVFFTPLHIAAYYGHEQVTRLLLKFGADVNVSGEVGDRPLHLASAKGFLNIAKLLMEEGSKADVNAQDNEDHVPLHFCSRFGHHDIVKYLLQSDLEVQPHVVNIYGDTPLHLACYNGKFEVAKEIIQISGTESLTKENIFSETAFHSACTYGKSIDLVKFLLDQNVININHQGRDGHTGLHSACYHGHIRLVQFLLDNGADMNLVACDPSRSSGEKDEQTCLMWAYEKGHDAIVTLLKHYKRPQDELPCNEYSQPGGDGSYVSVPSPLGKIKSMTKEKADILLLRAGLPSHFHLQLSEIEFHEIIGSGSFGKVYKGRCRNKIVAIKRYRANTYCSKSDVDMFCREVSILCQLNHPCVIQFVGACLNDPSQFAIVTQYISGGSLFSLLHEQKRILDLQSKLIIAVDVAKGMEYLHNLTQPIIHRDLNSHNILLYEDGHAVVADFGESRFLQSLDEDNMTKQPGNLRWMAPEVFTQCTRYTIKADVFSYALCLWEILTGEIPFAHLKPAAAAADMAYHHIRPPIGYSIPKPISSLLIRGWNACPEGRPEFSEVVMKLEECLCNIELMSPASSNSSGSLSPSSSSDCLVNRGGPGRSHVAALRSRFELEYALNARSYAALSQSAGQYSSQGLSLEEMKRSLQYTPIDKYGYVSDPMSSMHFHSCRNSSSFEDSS

[4] = biological target: kinases (KINOMEscan panel) (Homo sapiens, UniProt Q9P1W9); conditions: PIM2; NEW KINOMEscan
kinases (KINOMEscan panel) (Homo sapiens, UniProt Q9P1W9), sequence (Q9P1W9 whole entry): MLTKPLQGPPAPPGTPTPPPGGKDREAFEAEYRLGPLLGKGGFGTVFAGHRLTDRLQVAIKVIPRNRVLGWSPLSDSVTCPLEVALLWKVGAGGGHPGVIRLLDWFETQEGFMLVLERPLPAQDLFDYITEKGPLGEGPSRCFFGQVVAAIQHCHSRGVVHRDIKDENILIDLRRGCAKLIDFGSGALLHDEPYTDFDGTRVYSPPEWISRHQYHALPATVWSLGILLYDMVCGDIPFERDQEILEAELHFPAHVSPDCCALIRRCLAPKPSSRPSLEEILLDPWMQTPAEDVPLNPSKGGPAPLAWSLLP

[5] = biological target: T3, kinases (KINOMEscan panel) (Homo sapiens, UniProt P33981); conditions: NEW KINOMEscan
T3 sequence (P33981 1-857): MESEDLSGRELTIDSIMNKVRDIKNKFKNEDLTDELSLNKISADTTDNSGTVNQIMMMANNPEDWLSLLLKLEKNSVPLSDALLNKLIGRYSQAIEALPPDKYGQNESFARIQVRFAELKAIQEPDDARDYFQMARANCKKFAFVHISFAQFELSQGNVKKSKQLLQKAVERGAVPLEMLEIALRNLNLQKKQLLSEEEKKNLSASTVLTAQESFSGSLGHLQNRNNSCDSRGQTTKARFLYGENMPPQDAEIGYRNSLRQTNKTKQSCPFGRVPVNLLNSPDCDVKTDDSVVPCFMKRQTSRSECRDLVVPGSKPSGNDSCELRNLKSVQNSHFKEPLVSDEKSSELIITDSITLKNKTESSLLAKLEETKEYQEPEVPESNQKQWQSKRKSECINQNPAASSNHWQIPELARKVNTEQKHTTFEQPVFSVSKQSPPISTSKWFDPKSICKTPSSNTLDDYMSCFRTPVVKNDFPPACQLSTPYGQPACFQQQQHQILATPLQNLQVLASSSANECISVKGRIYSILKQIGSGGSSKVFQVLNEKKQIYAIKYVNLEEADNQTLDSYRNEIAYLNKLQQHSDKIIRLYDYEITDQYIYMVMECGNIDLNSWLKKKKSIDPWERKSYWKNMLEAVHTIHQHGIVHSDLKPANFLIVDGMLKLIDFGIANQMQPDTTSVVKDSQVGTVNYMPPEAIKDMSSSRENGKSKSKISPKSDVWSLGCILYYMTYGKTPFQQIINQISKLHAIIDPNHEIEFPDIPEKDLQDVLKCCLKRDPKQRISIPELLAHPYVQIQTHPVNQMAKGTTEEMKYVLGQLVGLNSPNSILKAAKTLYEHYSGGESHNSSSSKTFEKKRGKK

[6] = biological target: kinases (KINOMEscan panel) (Homo sapiens, UniProt Q9BYP7); conditions: NEW KINOMEscan
kinases (KINOMEscan panel) (Homo sapiens, UniProt Q9BYP7), sequence (Q9BYP7 whole entry): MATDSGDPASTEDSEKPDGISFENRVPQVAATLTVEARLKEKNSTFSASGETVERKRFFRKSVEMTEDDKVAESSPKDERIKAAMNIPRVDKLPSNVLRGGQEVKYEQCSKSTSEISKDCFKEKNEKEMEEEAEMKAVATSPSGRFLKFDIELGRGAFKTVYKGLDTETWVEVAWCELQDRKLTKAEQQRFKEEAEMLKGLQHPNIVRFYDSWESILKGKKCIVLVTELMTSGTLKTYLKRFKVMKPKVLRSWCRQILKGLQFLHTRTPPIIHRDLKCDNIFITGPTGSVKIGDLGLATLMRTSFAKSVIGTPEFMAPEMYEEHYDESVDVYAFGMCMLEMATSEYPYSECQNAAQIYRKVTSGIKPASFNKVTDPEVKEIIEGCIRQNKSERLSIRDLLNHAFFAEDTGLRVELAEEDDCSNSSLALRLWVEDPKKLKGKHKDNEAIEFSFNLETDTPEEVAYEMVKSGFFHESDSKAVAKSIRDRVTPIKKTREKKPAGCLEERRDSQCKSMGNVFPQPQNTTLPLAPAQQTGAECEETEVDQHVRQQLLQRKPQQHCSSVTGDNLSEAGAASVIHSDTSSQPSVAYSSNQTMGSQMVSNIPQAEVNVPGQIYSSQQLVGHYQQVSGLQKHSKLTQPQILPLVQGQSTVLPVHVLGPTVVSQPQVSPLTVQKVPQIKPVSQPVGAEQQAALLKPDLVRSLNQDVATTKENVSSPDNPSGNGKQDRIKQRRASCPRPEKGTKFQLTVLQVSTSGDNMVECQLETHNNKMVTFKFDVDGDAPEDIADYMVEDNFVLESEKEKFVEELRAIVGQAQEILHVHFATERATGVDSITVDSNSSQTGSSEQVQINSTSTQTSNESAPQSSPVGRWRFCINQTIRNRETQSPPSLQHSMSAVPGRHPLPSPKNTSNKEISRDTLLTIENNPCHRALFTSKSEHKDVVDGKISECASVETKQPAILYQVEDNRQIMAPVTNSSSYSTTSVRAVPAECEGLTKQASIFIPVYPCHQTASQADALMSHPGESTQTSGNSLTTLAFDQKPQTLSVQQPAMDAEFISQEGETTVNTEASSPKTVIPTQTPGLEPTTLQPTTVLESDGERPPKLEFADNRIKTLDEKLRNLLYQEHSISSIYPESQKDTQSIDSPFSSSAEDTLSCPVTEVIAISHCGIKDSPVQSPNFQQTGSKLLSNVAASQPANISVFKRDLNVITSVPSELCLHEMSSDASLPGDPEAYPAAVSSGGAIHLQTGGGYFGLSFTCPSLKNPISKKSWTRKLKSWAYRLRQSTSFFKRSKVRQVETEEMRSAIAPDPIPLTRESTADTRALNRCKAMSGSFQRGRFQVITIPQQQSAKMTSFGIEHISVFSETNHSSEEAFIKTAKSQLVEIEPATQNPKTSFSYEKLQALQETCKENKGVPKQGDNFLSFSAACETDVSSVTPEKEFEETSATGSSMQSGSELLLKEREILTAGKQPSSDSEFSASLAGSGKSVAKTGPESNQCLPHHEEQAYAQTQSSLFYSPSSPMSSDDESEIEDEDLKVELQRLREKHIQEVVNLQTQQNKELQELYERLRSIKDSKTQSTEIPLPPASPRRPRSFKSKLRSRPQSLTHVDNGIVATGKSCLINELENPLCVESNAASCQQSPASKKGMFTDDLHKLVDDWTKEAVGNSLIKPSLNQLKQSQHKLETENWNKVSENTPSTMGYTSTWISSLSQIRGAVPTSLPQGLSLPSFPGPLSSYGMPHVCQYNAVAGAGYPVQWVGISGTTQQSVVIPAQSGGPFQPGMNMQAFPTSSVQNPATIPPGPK

kinases (KINOMEscan panel) (Homo sapiens, UniProt P07333), sequence (P07333 20-972): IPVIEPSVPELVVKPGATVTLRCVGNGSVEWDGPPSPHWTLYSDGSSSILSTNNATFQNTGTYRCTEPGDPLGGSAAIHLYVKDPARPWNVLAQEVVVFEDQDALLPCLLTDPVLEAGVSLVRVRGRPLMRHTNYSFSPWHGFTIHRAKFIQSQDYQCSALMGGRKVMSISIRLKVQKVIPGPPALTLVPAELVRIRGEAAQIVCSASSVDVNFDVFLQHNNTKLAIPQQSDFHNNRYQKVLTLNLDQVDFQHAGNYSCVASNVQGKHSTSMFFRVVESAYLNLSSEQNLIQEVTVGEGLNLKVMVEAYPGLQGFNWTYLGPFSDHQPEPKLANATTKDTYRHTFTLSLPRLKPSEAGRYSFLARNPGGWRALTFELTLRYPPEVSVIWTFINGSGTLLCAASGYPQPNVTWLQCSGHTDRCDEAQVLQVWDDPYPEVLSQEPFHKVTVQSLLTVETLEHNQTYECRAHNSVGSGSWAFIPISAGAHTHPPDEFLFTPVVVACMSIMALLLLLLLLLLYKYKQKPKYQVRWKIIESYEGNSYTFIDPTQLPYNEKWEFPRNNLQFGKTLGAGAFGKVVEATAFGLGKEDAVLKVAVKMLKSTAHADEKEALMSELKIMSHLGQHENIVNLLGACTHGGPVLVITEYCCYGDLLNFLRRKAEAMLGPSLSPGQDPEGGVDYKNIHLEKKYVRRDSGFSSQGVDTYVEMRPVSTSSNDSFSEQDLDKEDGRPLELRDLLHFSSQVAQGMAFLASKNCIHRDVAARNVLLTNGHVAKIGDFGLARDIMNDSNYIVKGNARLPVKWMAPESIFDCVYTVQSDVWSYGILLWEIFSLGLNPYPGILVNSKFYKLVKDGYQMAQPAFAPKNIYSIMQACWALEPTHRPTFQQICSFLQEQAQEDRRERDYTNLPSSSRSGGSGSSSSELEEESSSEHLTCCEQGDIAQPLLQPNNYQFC

| Structure (SMILES) | KINOMEscan CSF1R [1] | KINOMEscan CSF1R-autoinhibited [1] | KINOMEscan HIPK4 [2] | KINOMEscan TNNI3K [3] | KINOMEscan PIM2 [4] | KINOMEscan TTK [5] | KINOMEscan WNK3 [6] |
| --- | --- | --- | --- | --- | --- | --- | --- |
| Cc1cccc(-c2nc(Nc3ccc4nn(C)cc4c3)c3ccccc3n2)n1 [NK167] | 16 | 0 | 7 | 6 | 2 | 17 | 0 |
| Cc1cccc(-c2nc(N(C)c3ccc4ncsc4c3)c3ccccc3n2)n1 [NK-161] | 18 | 26 | 25 | 9 | 18 | 26 | 28 |
